Assay results from PubChem BioAssay AID1626 (SRMLSC, 2009).

Test system: M. tuberculosis H37Rv growth inhibition
Assay: M. tuberculosis H37Rv growth inhibitors, H37Rv strain (AID 1626)
Details: for IC90: measured here: IC90 against H37Rv; for CC50: measured here: Vero cell cytotoxicity

Compound | IC50 | IC90 | CC50
CCN(CC)c1ccc(/C=C(/C#N)c2nc3ccccc3[nH]2)c(OC(C)C)c1 | 0.488 µM | 0.936 µM | > 40 µM
NC1=NC[C@H](Cc2ccc(O)cc2)N1CCC12CC3CC(CC(C3)C1)C2 | 5.85 µM | 9.05 µM | –
Oc1c(Cl)cc(Cl)cc1/C=C/c1ccc2cccc(O)c2n1 | 3.06 µM | > 100 µM | 10.1 µM
O=C(CC(Nc1ccc(F)cc1)C(=O)OCC(=O)c1cccs1)c1ccccc1 (stereo not drawn) | 67.1 µM | > 100 µM | –
CCOC(=O)c1ccc2ncc(C(=O)OCC)c(Nc3ccc(N4CCOCC4)cc3)c2c1 | 10.9 µM | 22.7 µM | > 40 µM
Cc1nc2ccc(NC(=O)C(F)(F)F)cc2o1 | – | > 100 µM | –
COc1ccc(C(=O)CNc2ccc3ccccc3c2)cc1 | 4.74 µM | > 100 µM | –
c1ccc(-c2nc(N3CCCCCC3)nc(-n3ccnc3)n2)cc1 | 0.253 µM | 1.9 µM | 30 µM
Clc1ccc2nc(-c3ccccn3)c(Nc3ccc4c(c3)OCO4)n2c1 | 2.56 µM | 4.43 µM | 11.1 µM
NC1CCN(c2nc3c(cc2F)c(=O)c(C(=O)O)cn3-c2ccc(F)cc2F)C1 (stereo not drawn) | 1.29 µM | 4.21 µM | –
c1ccc(-c2nc(N3CCCCCC3)c3ccccc3n2)nc1 | 0.304 µM | 0.318 µM | 4.21 µM
CCN(CCCCN1C(=O)c2ccccc2C1=O)c1ccc2c(c1)C(=O)N(C)C2=O | 12 µM | > 100 µM | –
Cc1ccc(Nc2cc(C)nn2-c2nc(C)cc(C)n2)cc1 | < 0.195 µM | 56.1 µM | 13.5 µM
Cc1ccc(-n2cc(CN(C)Cc3nccn3C)c(-c3cccc(C)c3)n2)cc1 | 9.75 µM | 15.9 µM | > 40 µM
O=C1Nc2ccccc2C1=Nc1ccc(S(=O)(=O)Nc2nccs2)cc1 | 4.54 µM | 11.3 µM | –
Nc1[nH]ncc1-c1ccc(Cl)cc1 | 21.6 µM | > 100 µM | –
O=C1CCCCc2sc(Br)c([N+](=O)[O-])c2N1 | 8.43 µM | 15.4 µM | 14.4 µM
COc1ccc(C(=O)OCCNC(=O)c2c(Cl)nc3ccccn23)cc1 | 5.08 µM | 15.8 µM | –
O=C(CSc1nnc(-c2ccco2)o1)c1ccccc1Cl | – | > 100 µM | –
CC[n+]1c(/C=C2\Sc3ccccc3N2C)ccc2cccc(C)c21 | 1.01 µM | 1.4 µM | 2.41 µM
O=C1C2C3C=CC(C3)C2C(=O)N1c1ccc(-c2nc3ccccc3c(=O)o2)cc1 (stereo not drawn) | 9.33 µM | 23.1 µM | –

Compound | IC50 | IC90 | CC50
FC(F)(F)c1ccc(N2CCOCC2)c(Nc2nc3ccccc3n3cnnc23)c1 | 8.57 µM | 18.3 µM | 24.5 µM
O=C(c1cc2c(F)cccc2s1)N1CCCC1 | 7.87 µM | > 100 µM | –
Clc1ccc(-n2nnnc2Sc2ncnc3sccc23)cc1 | 63.4 µM | > 100 µM | 10.5 µM
CCN1CCN(Cc2ccc(NC(=O)c3ccc(C)c(NC(=O)c4c[nH]c5cc(C(F)(F)F)ccc5c4=O)c3)cc2C(F)(F)F)CC1 | 3.86 µM | 4.72 µM | 3.28 µM
COc1ccc(CNc2nc3nc4c(c(=O)n3[nH]2)CCC4)cc1 | 1.09 µM | > 100 µM | –
COC(=O)CSc1ncnc2c1sc1nc3c(cc12)COC(C)(C)C3 | 3.1 µM | 10 µM | –
Cc1nc(SCc2ccc(F)cc2)c2oc3ccccc3c2n1 | < 0.195 µM | > 100 µM | –
CC1CCCC(NCC(O)COC(c2ccc(F)cc2)c2ccc(F)cc2)C1C (stereo not drawn) | 5.69 µM | 6.42 µM | 24.3 µM
COc1ccc2cc(C(c3nnnn3C3CCCC3)N3CCCCCC3)c3nnnn3c2c1 (stereo not drawn) | – | – | 15.1 µM
CCCCC(=O)Nc1ccc2c(c1)oc1ccccc12 | – | > 100 µM | –
O=C(OCC(=O)N1CCCCC1)c1cc2ccccc2cc1O | 1.62 µM | 10.6 µM | –
Cc1nc2ccccn2c1C(=O)NCc1ccc2c(c1)OCO2 | 1.62 µM | 7.83 µM | –
CCC(=C(c1ccc(OC)cc1)c1ccc(OC)cc1)c1cn(CC(O)CN(CCO)CCO)c2ccccc12 (stereo not drawn) | 12.5 µM | 13.6 µM | 26.5 µM
COC(=O)CSc1nc(N)c2c3c(sc2n1)CCCC3 | 2.54 µM | 4.12 µM | –
CCOC(=O)c1ccc(NC(=O)CCC2COc3ccccc3O2)cc1 (stereo not drawn) | 3.3 µM | > 100 µM | –
Cc1cccc(N2CCN(C(=O)/C=C/c3cccs3)CC2C)c1 (stereo not drawn) | 23.4 µM | 26.5 µM | –
O=C(Nc1nnc(-c2ccc(Cl)s2)o1)C1CCCCC1 | 3.84 µM | > 100 µM | > 40 µM
O=C(C[n+]1cc(-c2ccc(Cl)cc2)n2c1CCC2)N1c2ccccc2Sc2ccccc21 | 12.1 µM | 13.7 µM | –
CCC(=O)Nc1nc2ccccc2n1Cc1ccccc1C | 1.47 µM | > 100 µM | > 40 µM
CCCOC(=O)c1ccc(NC(=O)CCOc2ccccc2)cc1 | 0.622 µM | > 100 µM | –
CCN1CCN(c2cc(-c3ccccc3)nc3cc(-c4cccc(F)c4)nn23)CC1 | 8.07 µM | 12.9 µM | 39.2 µM

Compound | IC50 | IC90 | CC50
O=C(NCc1ccco1)c1cc([N+](=O)[O-])cc([N+](=O)[O-])c1 | 1.46 µM | 1.65 µM | –
COc1ccc(NCN2C(=O)CCC2=O)cc1 | – | > 100 µM | –
CCOc1ccc(CN2CCN(CC(O)Cn3c4ccccc4c4ccccc43)CC2)cc1 (stereo not drawn) | 4.35 µM | 6.2 µM | 13.6 µM
Cc1cc(C)cc(NC(=O)c2ccc([N+](=O)[O-])o2)c1 | 9.59 µM | 22.6 µM | 9.81 µM
CC(C)Cn1c(N)c(C(=O)COC(=O)c2cnc(Cl)c(Cl)c2)c(=O)n(C)c1=O | 8.01 µM | 20.7 µM | > 40 µM
c1ccc(-c2ccc3c(c2)c2c4n3CCN=C4CCC2)cc1 | 10.7 µM | 14.9 µM | 24.7 µM
Cc1ccc2nc(/C(C#N)=C\c3ccc(OC(=O)c4cccs4)cc3)[nH]c2c1 | 20.4 µM | > 100 µM | 22.9 µM
Cc1nc(SCC(=O)Nc2cc(C)on2)c2c3c(sc2n1)CCCC3 | < 0.195 µM | 13.8 µM | 21 µM
Cc1cc(C(=O)CCl)c(C)n1-c1cccc([N+](=O)[O-])c1 | 8.96 µM | 15.7 µM | 20.3 µM
Cc1ccc(-c2c[n+](CC(=O)N3c4ccccc4Sc4ccccc43)c3n2CCC3)cc1 | 7.87 µM | 20.6 µM | –
O=c1[nH]c(-c2ccccn2)nc(C(F)(F)F)c1Br | 0.487 µM | 1.02 µM | 33.4 µM
OCCN(/C=N/c1nc(-c2ccc(Br)cc2)cs1)CCO | 31.4 µM | > 100 µM | –
COc1ccc(N)cc1-n1cnnn1 | – | > 100 µM | –
CC(=O)Nc1nc(NC(=O)/C=C/c2ccccc2)n(-c2ccccc2)n1 | 3.63 µM | 8.76 µM | 27.7 µM
N=C1SC(c2ccccc2)C(=O)N1c1ncc(Cc2ccccc2Cl)s1 (stereo not drawn) | 71 µM | > 100 µM | 29.5 µM
Oc1ccccc1N1CCN(c2ncnc3sc(-c4ccccc4)cc23)CC1 | 9.21 µM | 13 µM | > 40 µM
COc1ccc2c(c1)sc(=N)n2C | 8.91 µM | 11.7 µM | > 40 µM
Cc1ccc(Cn2ccc(=O)c(OCc3c(Cl)cccc3Cl)c2C)cc1 | 8.57 µM | 11.8 µM | > 40 µM
Cc1cc(C)n2c(SCc3ccc(Br)cc3)nnc2n1 | – | – | > 40 µM
O=C(c1cc(COc2ccc(F)cc2Cl)on1)N1CCC(OCc2cccnc2)CC1 | – | > 100 µM | 8.01 µM
O=C(/C=C/c1cn(CC(O)CN2CCCCCC2)c2ccccc12)c1cccs1 (stereo not drawn) | 0.993 µM | 1.95 µM | 20 µM

Compound | IC50 | IC90 | CC50
Cc1ccc(Cc2cnc(NC(=O)C3CCCO3)s2)cc1 (stereo not drawn) | – | > 100 µM | > 40 µM
CC1(c2ccccc2)CC(C)(C)N(C(=O)c2cc([N+](=O)[O-])cc([N+](=O)[O-])c2)c2ccccc21 (stereo not drawn) | 13.4 µM | 54.5 µM | > 40 µM
CCCCc1ccc(NC(=O)CC(C)C)cc1 | 6.02 µM | > 100 µM | –
NC1=NC[C@H](Cc2ccc(O)cc2)N1CCCCC1CCCCC1 | 5.33 µM | 7.7 µM | –
CC(C)(C)C1CCc2c(sc(NC(=O)CSc3nnc(-c4ccccc4)o3)c2C#N)C1 (stereo not drawn) | – | > 100 µM | –
c1ccc(-c2nc(NCCCn3ccnc3)c3oc4ccccc4c3n2)cc1 | 2.81 µM | 3.16 µM | > 40 µM
COC(=O)c1cccc(NC(=O)NC23CC4CC(CC(C4)C2)C3)c1 | 23.9 µM | > 100 µM | > 40 µM
O=C(CNC(=O)c1ccc(-c2ccccc2)cc1)OCc1c(F)cccc1Cl | 7.49 µM | > 100 µM | –
O=C(COc1ccc(Cl)cc1)Nc1ccc(Cc2ccncc2)cc1 | 5.95 µM | 12.4 µM | –
CC1=Nc2ccccc2/C1=C/c1sc(=N)n(-c2nccs2)c1O | < 0.195 µM | < 0.195 µM | 14.3 µM
c1ccc(C2[C@H]3CN(CC4CCCCC4)[C@H](c4ccccc4)C34CC2(c2cccnc2)C4)cc1 (stereo partly drawn) | 15 µM | 23.4 µM | –
COc1ccc(NS(=O)(=O)c2cc(NC(=O)[C@@H](NC(=O)c3ccccc3)C(C)C)ccc2C)cc1 | – | – | 23.3 µM
CC(=O)c1c(C)n(C)c2ccc(O)cc12 | – | > 100 µM | –
O=c1[nH]c2ccccc2n1CCCN1CCN(C(c2ccccc2)c2ccccc2)CC1 | 17.1 µM | 25.3 µM | > 40 µM
CCCCCc1cc(=O)oc2c(C(CCN3CCCCC3)c3cc(OC)c(OC)c(OC)c3)c(OC)cc(OC)c12 (stereo not drawn) | 4.18 µM | 5.62 µM | 13.7 µM
COc1cc(N=C2C(=O)N3c4c(cccc42)C(C)=CC3(C)C)cc(OC)c1 | 46.9 µM | > 100 µM | –
O=C(Nc1nnc(-c2ccc3c(c2)OCCO3)o1)C1CCCCC1 | – | > 100 µM | –
CCOC(=O)C1CCCc2c1[nH]c1c(C(N)=O)cccc21 (stereo not drawn) | 3.38 µM | 29.1 µM | –
CCOC(=O)c1cccc(NC(=O)CCc2nc(-c3ccc(C)cc3)no2)c1 | 30.1 µM | > 100 µM | –
C=CCOc1ccc(CN(C)Cc2nc3cc(C(F)(F)F)ccc3c(=O)[nH]2)cc1 | 12.4 µM | > 100 µM | –
